The values below come from patent US20090029992A1, “SUBSTITUTED PYRAZOLE COMPOUNDS” (priority 2007, published 2009).

Where only a bound is given, the exact number is not on record here.

The subject of one test is HCT116 cells. Description: Whole cell cytotoxicity assay, Sulforhodamine B. It counts as cell-based. To be noted: Homo sapiens, HCT-116, HCT116, 96 hours incubation, SRB; for IC50: read-out: IC50 values in this assay (HCT116 cell growth); for GI50: read-out: GI50 HCT116 cell growth. As for the experimental part: Human tumor-derived cell lines, HCT116 or MCF7 (ATCC) were plated in a 96 well plate in DMEM containing 10% fetal bovine serum and 2 mM L-glutamine at a density of 500 HCT116 cells or 1,000 MCF7 cells per well and incubated at 37° C., 5% CO2, for 24 hours prior to the addition of experimental compounds. Compounds were added using the dilution series indicated to duplicate plates and the cells were incubated in media plus compound for 96 hours. An additional plate was fixed in 10% TCA at the time of the addition of compound to provide a measurement of the cell population at time zero, the time of drug addition. Following the 96 hour incubation, cells were fixed in situ by gently aspirating off the culture media and then adding 50 ul of ice cold 10% TCA per well and incubation at 4° C. for 60 minutes. The plates were washed with tap water five times and allowed to air dry for 5 minute. 50 ul of a 0.4% (w/v) Sulforhodamine B solution in 1% (v/v) acetic acid was added per well and the cells were incubated for 30 minutes at room temperature. Following staining, plates were washed four times with 1% acetic acid to remove any unbound dye and then allowed to air dry for 5 minutes. The stain was solubilized with 100 ul of 10 mM Tris pH 10.5 per well and placed on an orbital rotator for 5 minutes. The absorbance was read at 570 nm. Percentage growth was calculated using the absorbance readings from the time zero plate (Tz) and the dilution series plate […] which included a column of cells grown in media without compound as a control (C) using the formulas:
[(Ti−Tz)/(C−Tz)]×100 for concentrations for which Ti>/=Tz
[(Ti−Tz)/Tz]×100 for concentrations for which Ti<Tz.
Three dose response parameters were calculated for each experimental agent. Growth inhibition of 50% (GI50) was calculated from [(Ti−Tz)/(C−Tz)]×100=50, which was the drug concentration resulting in a 50% reduction in the net protein increase (as measured by SRB staining) in control cells during the drug incubation. The drug concentration resulting in total growth inhibition (TGI) was calculated from Ti=Tz. The LC50 (concentration of drug resulting in a 50% reduction in the measured protein at the end of the drug treatment as compared to that at the beginning) indicating a net loss of cells following treatment ws calculated from [(Ti−Tz)/Tz]×100=−50. Values are calculated for each of these three parameters if the level of activity was reached; however, if the effect was not reached or was exceeded, the value for that parameter is expressed as greater or less than the maximum or minimum concentration tested.

Test [1] concerns the target T1, N-terminal His6-tagged recombinant human KDR, residues 790-end (Homo sapiens, UniProt P35968).
T1 construct: recombinant human KDR, residues 790-end; His6 (N); purchased Upstate USA Inc, 706 Forest Street, Charlottesville, Va
The test can be described thus: KDR kinase inhibition assay (33P-ATP filter assay). The class given is biochemical. The method, then: (§1) Compounds were assayed for KDR kinase inhibitory activity using N-terminal His6-tagged recombinant human KDR, residues 790-end (Upstate USA Inc, 706 Forest Street, Charlottesville, Va.). Serial dilutions of compound were assayed in a final reaction volume of 25 μL by incubating a solution of the above KDR kinase (5-10 mU), 8 mM MOPS (3-(N-morpholino) propanesulfonic acid) pH 7.0, 0.2 mM EDTA (ethylenediamine tetracetic acid), 0.33 mg/mL myelin basic protein (Upstate USA Inc, 706 Forest Street, Charlottesville, Va.), and 10 mM magnesium acetate and [γ-^33P-ATP] (specific activity of about 500 cpm/μmol, concentration as required). The reaction was initiated by the addition of the magnesium acetate and [γ-^33P-ATP] mixture. After incubation for 40 minutes at room temperature, the reaction was stopped by the addition of 5 μL of a 3% phosphoric acid solution. A 10 μL aliquote of the reaction was then spotted onto a P30 filtermat (PerkinElmer, Wellesley, Mass.) and washed three times for five minutes in 75 mM phosphoric acid and once in methanol prior to drying and scintillation counting. Inhibition of KDR activity was determined by comparison to assays that contained no inhibitor.

Test [2] addresses T2, N-terminal GST-tagged recombinant human Flt3, residues 564-end (Homo sapiens, UniProt P36888).
T2 construct: recombinant human Flt3, residues 564-end; GST (N); purchased Upstate USA Inc, 706 Forest Street, Charlottesville, Va
T2 sequence (P36888 564-993 limits assumed): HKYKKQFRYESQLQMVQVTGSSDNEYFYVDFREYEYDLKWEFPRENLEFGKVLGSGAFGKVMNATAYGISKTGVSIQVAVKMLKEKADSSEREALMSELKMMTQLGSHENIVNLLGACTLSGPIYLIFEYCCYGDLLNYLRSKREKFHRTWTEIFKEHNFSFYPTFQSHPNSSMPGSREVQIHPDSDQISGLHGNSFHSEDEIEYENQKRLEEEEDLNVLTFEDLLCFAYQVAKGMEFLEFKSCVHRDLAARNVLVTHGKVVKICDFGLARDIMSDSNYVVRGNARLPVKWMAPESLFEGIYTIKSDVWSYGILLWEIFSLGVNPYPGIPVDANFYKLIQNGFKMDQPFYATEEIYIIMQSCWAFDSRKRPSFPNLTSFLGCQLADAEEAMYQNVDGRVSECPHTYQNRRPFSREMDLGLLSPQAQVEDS
The test can be described thus: Flt3 kinase inhibition assay (33P-ATP filter assay). The class given is biochemical. The method, then: as §1, with “Flt3” for “KDR”, “GST-tagged” for “His6-tagged”, “Flt3,” for “KDR,”, “564-end” for “790-end”, “50 μM amino acid sequence EAIYAAPFAKKK” for “0.33 mg/mL myelin basic protein”

For test [3], the target named is T3, N-terminal His-tagged human Src (Homo sapiens, UniProt P12931).
T3 construct: His (N); purchased Upstate USA Inc, 706 Forest Street, Charlottesville, Va
T3 sequence (P12931 whole entry): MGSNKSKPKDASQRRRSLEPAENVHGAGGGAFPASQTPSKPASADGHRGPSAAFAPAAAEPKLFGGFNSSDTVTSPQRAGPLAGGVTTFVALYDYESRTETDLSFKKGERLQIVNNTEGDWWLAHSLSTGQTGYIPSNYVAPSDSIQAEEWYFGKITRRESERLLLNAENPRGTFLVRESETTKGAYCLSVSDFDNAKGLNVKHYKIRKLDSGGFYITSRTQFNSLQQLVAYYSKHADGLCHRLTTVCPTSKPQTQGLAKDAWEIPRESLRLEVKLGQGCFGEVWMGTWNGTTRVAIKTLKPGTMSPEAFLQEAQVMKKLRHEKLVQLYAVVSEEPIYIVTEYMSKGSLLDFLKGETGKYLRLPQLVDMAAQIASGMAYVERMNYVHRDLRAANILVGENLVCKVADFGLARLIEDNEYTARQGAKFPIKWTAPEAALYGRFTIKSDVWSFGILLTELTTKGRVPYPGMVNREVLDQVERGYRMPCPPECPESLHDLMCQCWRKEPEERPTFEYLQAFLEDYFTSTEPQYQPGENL
The test can be described thus: Src kinase inhibition assay (33P-ATP filter assay). It counts as biochemical. The method, then:
as §1, with “Src” for “KDR”, “His-tagged” for “His6-tagged recombinant”, “Src” for “KDR, residues 790-end”, “250 μM amino acid sequence KVEKIGEGTYGVVYK” for “0.33 mg/mL myelin basic protein”

[4] abbreviates: group with IC50 greater than 100 nM.

T1 sequence (P35968 790-1356 limits assumed): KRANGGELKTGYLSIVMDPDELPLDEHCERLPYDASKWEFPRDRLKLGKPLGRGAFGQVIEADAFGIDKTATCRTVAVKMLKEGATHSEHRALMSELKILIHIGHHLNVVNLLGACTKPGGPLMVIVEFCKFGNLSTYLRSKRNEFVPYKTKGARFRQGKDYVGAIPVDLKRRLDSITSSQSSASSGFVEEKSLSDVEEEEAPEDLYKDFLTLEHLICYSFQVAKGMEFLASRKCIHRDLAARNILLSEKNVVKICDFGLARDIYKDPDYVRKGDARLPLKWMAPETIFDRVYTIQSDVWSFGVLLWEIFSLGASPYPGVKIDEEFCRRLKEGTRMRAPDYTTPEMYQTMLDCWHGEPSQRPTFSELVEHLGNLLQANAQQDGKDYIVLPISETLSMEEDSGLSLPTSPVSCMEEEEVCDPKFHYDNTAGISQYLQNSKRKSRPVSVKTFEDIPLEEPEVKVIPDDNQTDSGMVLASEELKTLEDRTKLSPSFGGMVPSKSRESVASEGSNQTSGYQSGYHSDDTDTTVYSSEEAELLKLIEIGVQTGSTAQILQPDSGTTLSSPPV

On to `COCCN(C)c1cc(Nc2cc(C)[nH]n2)nc(-c2ccccc2OC)n1` [Compound 69, N^4-(2-methoxyethyl)-2-(2-methoxyphenyl)-N^4-methyl-N^6-(5-methyl-1H-pyrazol-3-yl)pyrimidine-4,6-diamine], for which the IC50 (commonly the concentration at which inhibition is half-maximal) was 1000 to 10000 nM with HCT116 cells, not above 1000 nM in test [1] (setting [4]) and not above 1000 nM in test [2] (setting [4]).

For `Cc1cc(Nc2cc(N3CCN(C)CC3)nc(-c3cc(C(F)(F)F)cc(C(F)(F)F)c3)n2)n[nH]1` [Example 173, 2-(3,5-bis(trifluoromethyl)phenyl)-N-(5-methyl-1H-pyrazol-3-yl)-6-(4-methylpiperazin-1-yl)pyrimidin-4-amine], the GI50 (as a rule, the concentration that inhibits growth by half) in the test with HCT116 cells is not above 1000 nM. For the same compound, the IC50 in test [2] (40 minutes at room temperature) was not above 100 nM.

Turning to `CCc1ccccc1-c1nc(Nc2cc(C)[nH]n2)cc(N(C)CCOC)n1` [Example 187, 2-(2-ethylphenyl)-N^4-(2-methoxyethyl)-N^4-methyl-N^6-(5-methyl-1H-pyrazol-3-yl)pyrimidine-4,6-diamine], the IC50 in test [3] (40 minutes at room temperature) was not above 100 nM; in test [1] (setting [4]), not above 1000 nM; in test [2] (40 minutes at room temperature), not above 100 nM.

For `Cc1cc(Nc2cc(N3CCN(C)CC3)nc(-c3ccc(S(C)(=O)=O)cc3)n2)n[nH]1` [Compound 95, N-(5-methyl-1H-pyrazol-3-yl)-6-(4-methylpiperazin-1-yl)-2-(4-(methylsulfonyl)phenyl)pyrimidin-4-amine], the concentration for 50% growth inhibition (GI50) in the test on HCT116 cells was not above 1000 nM.

Take `COCCN(C)c1cc(Nc2cc(C)[nH]n2)nc(-c2cc(C)ccc2C)n1` [Example 202, 2-(2,5-dimethylphenyl)-N^4-(2-methoxyethyl)-N^4-methyl-N^6-(5-methyl-1H-pyrazol-3-yl)pyrimidine-4,6-diamine]: the IC50 in the test on HCT116 cells is 1000 to 10000 nM; in test [2] (40 minutes at room temperature) it was not above 100 nM.

With `Cc1cccc(-c2nc(Nc3cc(C)[nH]n3)cc(NC3CCOCC3)n2)c1` [Compound 26, N^4-(5-methyl-1H-pyrazol-3-yl)-N^6-(tetrahydro-2H-pyran-4-yl)-2-m-tolylpyrimidine-4,6-diamine], the values for the IC50 (in test [3] (setting [4]); in the test on HCT116 cells; in test [1] (40 minutes at room temperature)) were not above 1000 nM, 1000 to 10000 nM and not above 100 nM, respectively.

In the case of `COc1ccccc1-c1nc(Nc2cc(C)[nH]n2)cc(N(C)CCN(C)C)n1` [Compound 56, N^4-(2-(dimethylamino)ethyl)-2-(2-methoxyphenyl)-N^4-methyl-N^6-(5-methyl-1H-pyrazol-3-yl)pyrimidine-4,6-diamine], the GI50 in the test on HCT116 cells was not above 1000 nM. In addition, the half-maximal inhibitory concentration (IC50) is not above 1000 nM in test [1] (setting [4]) and not above 100 nM in test [2] (40 minutes at room temperature).

Regarding `COc1ccccc1-c1nc(Nc2cc(C)[nH]n2)cc(NC2CCOCC2)n1` [Compound 30, 2-(2-methoxyphenyl)-N^4-(5-methyl-1H-pyrazol-3-yl)-N^6-(tetrahydro-2H-pyran-4-yl)pyrimidine-4,6-diamine], the IC50 in test [1] (setting [4]) is not above 1000 nM.

With `Cc1cc(Nc2cc(N(C)CCN(C)C)nc(-c3c(C)cccc3C)n2)n[nH]1` [Example 195, N^4-(2-(dimethylamino)ethyl)-2-(2,6-dimethylphenyl)-N^4-methyl-N^6-(5-methyl-1H-pyrazol-3-yl)pyrimidine-4,6-diamine], in test [2] (setting [4]), the IC50 is not above 1000 nM.

Take `Cc1cc(Nc2cc(N3CCN(C)CC3)nc(-c3c(C)cccc3C)n2)n[nH]1` [Example 194, 2-(2,6-dimethylphenyl)-N-(5-methyl-1H-pyrazol-3-yl)-6-(4-methylpiperazin-1-yl)pyrimidin-4-amine]: the IC50 in test [2] (setting [4]) is not above 1000 nM.

On to `Cc1cc(Nc2cc(NC3CCOCC3)nc(-c3c(C)cccc3C)n2)n[nH]1` [Example 199, 2-(2,6-dimethylphenyl)-N^4-(5-methyl-1H-pyrazol-3-yl)-N^6-(tetrahydro-2H-pyran-4-yl)pyrimidine-4,6-diamine], for which the IC50 in test [2] (setting [4]) is not above 1000 nM.

In the case of `COCCN(C)c1cc(Nc2cc(C)[nH]n2)nc(-c2ccc(C(C)(C)C)cc2)n1` [Compound 115, 2-(4-tert-butylphenyl)-N^4-(2-methoxyethyl)-N^4-methyl-N^6-(5-methyl-1H-pyrazol-3-yl)pyrimidine-4,6-diamine], the IC50 was not above 1000 nM in test [3] (setting [4]), 1000 to 10000 nM in the test with HCT116 cells and not above 100 nM in test [2] (40 minutes at room temperature).

Consider `Cc1ccc(C)c(-c2nc(Nc3cc(C)[nH]n3)cc(N(C)CCN(C)C)n2)c1` [Example 207, N^4-(2-(dimethylamino)ethyl)-2-(2,5-dimethylphenyl)-N^4-methyl-N^6-(5-methyl-1H-pyrazol-3-yl)pyrimidine-4,6-diamine], for which the IC50 in test [1] (setting [4]) was not above 1000 nM; in test [2] (40 minutes at room temperature) it was not above 100 nM.

Regarding `Cc1cc(Nc2cc(N(C)CCN(C)C)nc(-c3cccc4c3OCCO4)n2)n[nH]1` [Example 143, 2-(2,3-dihydrobenzo[b][1,4]dioxin-5-yl)-N^4-(2-(dimethylamino)ethyl)-N^4-methyl-N^6-(5-methyl-1H-pyrazol-3-yl)pyrimidine-4,6-diamine], the IC50 in the test on HCT116 cells was 1000 to 10000 nM; in test [1] (setting [4]), not above 1000 nM; in test [2] (40 minutes at room temperature), not above 100 nM.
